Measurements reported in PMC6470557, “Synthesis of New GABAA Receptor Modulator with Pyrazolo[1,5-a]quinazoline (PQ) Scaffold” (International Journal of Molecular Sciences, 2019).
Values belong to the compound of their own block, whether it stands above or below them.

How the values were obtained:
Format in all cases: cell-based
[1] = target: T1, α1β2 GABAA receptor (α1 subunit) (Homo sapiens, UniProt P14867+P47870); experiment: voltage clamp: block of CGS […] potentiation (data not shown); […] [3H]flumazenil displacement at […] in bovine membranes
T1 construct: gene GABRA1; recombinant α1β2 receptor (devoid of the γ subunit) in Xenopus laevis oocytes; with GABAA receptor β2 subunit (GABRB2)
T1 sequence (P14867 28-456): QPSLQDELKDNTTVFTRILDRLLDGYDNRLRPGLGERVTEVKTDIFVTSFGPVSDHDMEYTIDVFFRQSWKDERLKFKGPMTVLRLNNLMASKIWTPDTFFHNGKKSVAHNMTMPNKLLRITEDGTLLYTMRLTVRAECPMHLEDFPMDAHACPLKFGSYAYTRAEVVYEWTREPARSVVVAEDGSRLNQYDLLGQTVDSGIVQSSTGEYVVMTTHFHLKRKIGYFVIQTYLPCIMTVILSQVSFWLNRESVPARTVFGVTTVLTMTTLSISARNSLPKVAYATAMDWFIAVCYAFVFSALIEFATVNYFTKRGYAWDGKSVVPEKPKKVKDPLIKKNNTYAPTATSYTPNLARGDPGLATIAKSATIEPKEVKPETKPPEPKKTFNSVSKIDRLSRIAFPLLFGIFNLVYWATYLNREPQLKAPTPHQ
T1 sequence (P47870 26-512): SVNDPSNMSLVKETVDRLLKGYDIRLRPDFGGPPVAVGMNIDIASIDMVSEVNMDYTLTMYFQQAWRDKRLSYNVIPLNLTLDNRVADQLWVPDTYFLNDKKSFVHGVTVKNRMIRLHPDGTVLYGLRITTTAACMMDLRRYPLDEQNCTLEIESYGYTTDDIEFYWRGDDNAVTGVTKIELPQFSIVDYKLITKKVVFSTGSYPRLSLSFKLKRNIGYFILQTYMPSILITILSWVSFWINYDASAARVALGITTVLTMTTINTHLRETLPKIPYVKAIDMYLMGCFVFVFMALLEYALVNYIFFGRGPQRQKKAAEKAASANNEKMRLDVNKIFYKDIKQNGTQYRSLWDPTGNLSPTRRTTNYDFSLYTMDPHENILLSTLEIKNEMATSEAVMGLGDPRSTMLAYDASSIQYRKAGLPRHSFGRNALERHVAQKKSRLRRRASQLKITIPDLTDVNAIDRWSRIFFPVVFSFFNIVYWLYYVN

[2] = target: T2, α1β2γ2L GABAA receptor (α1 subunit) (Homo sapiens, UniProt P14867+P18507); experiment: two-electrode voltage clamp of GABA currents in oocytes; also […] [3H]flumazenil displacement at […] in bovine membranes
T2 construct: gene GABRA1; recombinant α1β2γ2L receptor in Xenopus laevis oocytes; with GABAA receptor β2 (GABRB2) and γ2L (GABRG2) subunits
T2 sequence (P18507 40-475, one chain of several): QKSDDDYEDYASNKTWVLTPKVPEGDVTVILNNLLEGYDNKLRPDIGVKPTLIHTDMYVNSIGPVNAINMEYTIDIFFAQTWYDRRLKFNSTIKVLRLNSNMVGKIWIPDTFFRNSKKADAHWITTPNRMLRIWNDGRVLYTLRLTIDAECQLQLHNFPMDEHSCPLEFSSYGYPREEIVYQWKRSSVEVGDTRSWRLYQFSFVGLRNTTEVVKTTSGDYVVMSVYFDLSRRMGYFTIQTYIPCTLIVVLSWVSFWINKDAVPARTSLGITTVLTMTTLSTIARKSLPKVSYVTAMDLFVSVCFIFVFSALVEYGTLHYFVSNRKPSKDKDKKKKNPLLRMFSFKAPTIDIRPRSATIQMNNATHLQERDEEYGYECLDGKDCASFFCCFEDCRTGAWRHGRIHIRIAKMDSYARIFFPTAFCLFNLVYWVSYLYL

[3] = target: T1, α1β2 GABAA receptor (α1 subunit); experiment: voltage clamp: reduction of CGS […] potentiation (data not shown); […] [3H]flumazenil displacement at […] in bovine membranes

Structure (SMILES): COc1ccc2cnc3c(-c4cccs4)cnn3c2c1 [5d, 3-(Thien-2-yl)-8-methoxypyrazolo[1,5-a]quinazoline]
- voltage clamp: block of CGS 9895 potentiation (data not shown); >80% [3H]flumaze [1]: compounds 5d and 5e, which in the same test completely blocked or strongly reduced the potentiation of the GABAA receptor function

- EC50 [2]: 12 µM
Structure (SMILES): COc1ccc2cnc3c(C(=O)c4cccs4)cnn3c2c1 [6b, 3-(Thien-2-ylcarbonyl)-8-methoxypyrazolo[1,5-a]quinazoline]

Structure (SMILES): COc1ccc2cnc3c(-c4ccsc4)cnn3c2c1 [5e, 3-(Thien-3-yl)-8-methoxypyrazolo[1,5-a]quinazoline]
- voltage clamp: reduction of CGS 9895 potentiation (data not shown); >80% [3H]flu [3]: compounds 5d and 5e, which in the same test completely blocked or strongly reduced the potentiation of the GABAA receptor function
